Experimental data reported in US20110144303A1, “Biologically Active Peptidomimetic Macrocycles” (AILERON Therapeutics, Inc., priority 2008, published 2011).
Several values for one entry are separate records, joined by “and”; a condition that tells them apart may be missing. Equal values may be shown once. Read-outs that look alike come from different tables or passages of the source. Starred links: 1 amine or outer side, 2 acyl side, 3 side chain; linkers in the order of their positions; H or OH if unused. Positions of bridges follow the written chain, without caps; N, C: chain ends. Non-standard residues stand in square brackets, D forms with d. Residues, ends and D or L forms follow the SMILES beside them. ξ: configuration not given here. Nle(6-ylidene) = O=C([C@H](CCCC=[*:3])N[*:1])[*:2]; Nle = CCCC[C@H](N)C(=O)O; ξαMeC = CC(N)(CS)C(=O)O; X1 = C(=CC[*:2])C[*:1]; X2 = C(CC[*:2])C[*:1]

Assays:
[1] = Pepsin Stability: (E/S 1:50)
Description: Table printed on a drawing sheet, Figure 14
(§1) Title: Pepsin Stability: (E/S 1:50)
The patent's description of the figure: FIG. 14 describes the comparative pepsin stability of SP-33 and SP-34 peptidomimetic macrocycles of the invention.
First reader's note: The title is the heading of the plot printed under the table; the table gives the rate constants and half-lives of the pepsin digestion, fitted over the named time points.

GST-Mcl-1 = test: Kd
Protocol: Table printed on a drawing sheet, Figure 4
The patent's description of the figure: FIG. 4 depicts binding properties to GST-Mcl-1 of SP-4 and SP-54 peptidomimetic macrocycles.
First copying reader's note: Kd values belong to the adjacent saturation binding plot (stapled peptides + GST-Mcl-1, 2 µM receptor, 1x PBS + 5 mM CHAPS, 2.5% DMSO).
Where the first naming reader finds the target: description_of_the_figure: FIG. 4 depicts binding properties to GST-Mcl-1 of SP-4 and SP-54 peptidomimetic macrocycles.

[2] = Pharmacokinetics of SP-4 and SP-54 in Rats following IV dose
Description: Table printed on a drawing sheet, Figure 19
Title: Pharmacokinetics of SP-4 and SP-54 in Rats following IV dose
The patent's description of the figure: FIG. 19 illustrates the pharmacokinetic properties of SP-4 and SP-54 peptidomimetic macrocycles in rats.
First reader's note: Pharmacokinetic parameters in rats after IV dosing; the table is printed under a concentration-time plot that is not copied.

GST-Bcl-2 [3] = test: Kd
Protocol: Table printed on a drawing sheet, Figure 5
The patent's description of the figure: FIG. 5 depicts binding properties to GST-Bcl-2 of SP-4 and SP-54 peptidomimetic macrocycles.
First copying reader's note: Kd values belong to the plot beside the table, titled 'Saturation Binding Curves vs. 2 µM Receptor, 1x PBS + 5 mM CHAPS, 2.5% DMSO', with GST-Bcl-2 as the receptor.
Where the first naming reader finds the target: description_of_the_figure: FIG. 5 depicts binding properties to GST-Bcl-2 of SP-4 and SP-54 peptidomimetic macrocycles.

[4] = Pepsin Stability: (E/S 1:50); remark: listed apart in the source
Description: Table printed on a drawing sheet, Figure 13
as §1
The patent's description of the figure: FIG. 13 describes the comparative pepsin stability of SP-36 and SP-37 peptidomimetic macrocycles of the invention.
First reader's note: Each peptide appears twice (duplicate runs); the title is printed between the table and the plot of the same figure, and NC/NA are not defined on the sheet.

[5] = Pharmacokinetics of SP-43 and SP-42 in Rat following IV dose; conditions: in vivo
Description: Table printed on a drawing sheet, Figure 20
Title: Pharmacokinetics of SP-43 and SP-42 in Rat following IV dose
The patent's description of the figure: FIG. 20 illustrates the pharmacokinetic properties of SP-42 and SP-43 peptidomimetic macrocycles in rats.
First reader's note: Pharmacokinetic parameters in rat after an IV dose; the table stands under a concentration-time plot that is not copied.

GST-Bcl-XL = biological target: T1, GST-Bcl-XL (Homo sapiens, UniProt Q07817); test: Kd
T1 construct: GST
T1 sequence (Q07817 whole entry, looked up): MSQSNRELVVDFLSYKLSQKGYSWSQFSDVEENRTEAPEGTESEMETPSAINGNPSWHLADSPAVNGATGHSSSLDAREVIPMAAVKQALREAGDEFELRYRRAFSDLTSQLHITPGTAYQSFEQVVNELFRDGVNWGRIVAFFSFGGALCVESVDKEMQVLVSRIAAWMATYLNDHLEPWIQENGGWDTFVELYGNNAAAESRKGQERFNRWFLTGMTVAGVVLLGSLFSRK
Protocol: Table printed on a drawing sheet, Figure 7
The patent's description of the figure: FIG. 7 depicts binding properties to GST-Bcl-XL of SP-1 and SP-35 peptidomimetic macrocycles.
First copying reader's note: The table stands beside a saturation binding plot (2 µM receptor, 1x PBS + 5 mM CHAPS, 2.5% DMSO) whose legend names GST-Bcl-xL as the receptor for both peptides.
Where the first naming reader finds the target: description_of_the_figure: FIG. 7 depicts binding properties to GST-Bcl-XL of SP-1 and SP-35 peptidomimetic macrocycles.

[6] = Pharmacokinetics of SP-1 and SP-35 in Rat following IV dose
Description: Table printed on a drawing sheet, Figure 18
Title: Pharmacokinetics of SP-1 and SP-35 in Rat following IV dose
The patent's description of the figure: FIG. 18 illustrates the pharmacokinetic properties of SP-1 and SP-35 peptidomimetic macrocycles in rats.
First reader's note: The title stands over the plot above the table and applies to both: rat, IV dose.

GST-Bcl-2 [7] = test: Kd; remark: listed apart in the source
Protocol: Table printed on a drawing sheet, Figure 8
The patent's description of the figure: FIG. 8 depicts binding properties to GST-Bcl-2 of SP-1 and SP-35 peptidomimetic macrocycles.
First copying reader's note: The Kd values belong to the plot beside the table, titled 'Saturation Binding Curves vs. 2 µM Receptor, 1x PBS + 5 mM CHAPS, 2.5% DMSO', whose legend names the receptor as GST-Bcl-2.
Where the first naming reader finds the target: description_of_the_figure: FIG. 8 depicts binding properties to GST-Bcl-2 of SP-1 and SP-35 peptidomimetic macrocycles.

[8] = Pepsin Stability: (E/S 1:50); remark: listed apart in the source
Description: Table printed on a drawing sheet, Figure 12
as §1
The patent's description of the figure: FIG. 12 describes the comparative pepsin stability of SP-1 and SP-35 peptidomimetic macrocycles of the invention.
First reader's note: The title is printed over the plot below the table; the rate constants and half-lives describe degradation by pepsin, and the time points used are on the plot's Time (min) axis.

Structure (SMILES): CCCC[C@H](NC(=O)C1(C)CSCCCCSCC(C)(NC(=O)[C@H](C)NC(=O)[C@H](CC(C)C)NC(=O)[C@H](Cc2c[nH]cn2)NC(=O)[C@H](CCCNC(=N)N)NC(=O)[C@H](C)NC(=O)[C@@H](NC(=O)[C@H](CC(N)=O)NC(=O)[C@H](CCCNC(=N)N)NC(=O)[C@@H](NC(=O)[C@@H](NC(=O)[C@H](CC(=O)O)NC(C)=O)[C@@H](C)CC)[C@@H](C)CC)[C@@H](C)CC)C(=O)N[C@@H](C(C)C)C(=O)NCC(=O)N[C@@H](CC(=O)O)C(=O)N1)C(=O)N[C@@H](CC(=O)O)C(=O)N[C@@H](CCCNC(=N)N)C(=O)N[C@@H](CO)C(=O)N[C@H](C(N)=O)[C@@H](C)CC (stereo partly shown) [SP-34, Ac-DIIRNIARHLA$c4VGD$c4NleDRSI-NH2] (Ac-DIIRNIARHLA[ξαMeC]VGD[ξαMeC][Nle]DRSI-NH2; linker 12-16 via X2)
- K1 min^-1 [1]: 0.0019 min⁻¹
- half-life^1 [1]: 360 min

Structure (SMILES): CC[C@H](C)[C@H](NC(C)=O)C(=O)N[C@@H](Cc1c[nH]c2ccccc12)C(=O)N[C@H](C(=O)N[C@@H](C)C(=O)N[C@@H](CCC(N)=O)C(=O)N[C@@H](CCC(=O)O)C(=O)N[C@@H](CC(C)C)C(=O)N[C@@H](CCCNC(=N)N)C(=O)N[C@H]1CCCC=CCCC[C@@H](C(=O)N[C@@H](Cc2ccccc2)C(=O)N[C@@H](CC(N)=O)C(=O)N[C@@H](C)C(=O)N[C@@H](Cc2ccc(O)cc2)C(=O)N[C@@H](Cc2ccc(O)cc2)C(=O)N[C@@H](C)C(=O)N[C@@H](CCCNC(=N)N)C(=O)N[C@@H](CCCNC(=N)N)C(N)=O)NC(=O)[C@H](CC(=O)O)NC(=O)CNC(=O)[C@H]([C@@H](C)CC)NC1=O)[C@@H](C)CC [SP-54, Ac-IWIAQELR#IGD#FNAYYARR-NH2]
- Kd (GST-Mcl-1): 22 nM
- AUC,inf [2]: 12700 ng·h/mL
- Cl [2]: 4.02 mL/min/kg
- Vss [2]: 0.126 L/kg
- Vz [2]: 1.206 L/kg
- Cmax ([2]; rat, in vivo, iv): 27100 ng/mL
- MRT ([2]; rat, in vivo, iv): 31.2 min
- half-life ([2]; rat, in vivo, iv): 60 min
- Kd (GST-Bcl-2 [3]): 97 nM

Structure (SMILES): CCCC[C@H](NC(=O)[C@@H]1CSCCCCSC[C@H](NC(=O)[C@H](C)NC(=O)[C@H](CC(C)C)NC(=O)[C@H](Cc2c[nH]cn2)NC(=O)[C@H](CCCNC(=N)N)NC(=O)[C@H](C)NC(=O)[C@@H](NC(=O)[C@H](CC(N)=O)NC(=O)[C@H](CCCNC(=N)N)NC(=O)[C@@H](NC(=O)[C@@H](NC(=O)[C@H](CC(=O)O)NC(C)=O)[C@@H](C)CC)[C@@H](C)CC)[C@@H](C)CC)C(=O)N[C@@H](C(C)C)C(=O)NCC(=O)N[C@@H](CC(=O)O)C(=O)N1)C(=O)N[C@@H](CC(=O)O)C(=O)N[C@@H](CCCNC(=N)N)C(=O)N[C@@H](CO)C(=O)N[C@H](C(N)=O)[C@@H](C)CC [SP-33, Ac-DIIRNIARHLA#c4VGD#c4NleDRSI-NH2] (Ac-DIIRNIARHLACVGDC[Nle]DRSI-NH2; linker 12-16 via X2)
- K1 min^-1 [1]: 0.054 min⁻¹
- K2 min^-1 [1]: 0.0046 min⁻¹
- half-life^1 [1]: 13 min
- half-life^2 [1]: 150 min

Structure (SMILES): CCCC[C@H](NC(=O)[C@@H]1CSCC=CCSC[C@H](NC(=O)[C@H](C)NC(=O)[C@H](CC(C)C)NC(=O)[C@H](Cc2c[nH]cn2)NC(=O)[C@H](CCCNC(=N)N)NC(=O)[C@H](C)NC(=O)[C@@H](NC(=O)[C@H](CC(N)=O)NC(=O)[C@H](CCCNC(=N)N)NC(=O)[C@@H](NC(=O)[C@@H](NC(=O)[C@H](CC(=O)O)NC(C)=O)[C@@H](C)CC)[C@@H](C)CC)[C@@H](C)CC)C(=O)N[C@@H](C(C)C)C(=O)NCC(=O)N[C@@H](CC(=O)O)C(=O)N1)C(=O)N[C@@H](CC(=O)O)C(=O)N[C@@H](CCCNC(=N)N)C(=O)N[C@@H](CO)C(=O)N[C@H](C(N)=O)[C@@H](C)CC [SP-36, Ac-DIIRNIARHLA#cVGD#cNleDRSI-NH2] (Ac-DIIRNIARHLACVGDC[Nle]DRSI-NH2; linker 12-16 via X1)
- K1 min^-1 [4]: 0.095 min⁻¹ and 0.082 min⁻¹
- K2 min^-1 [4]: 0.0290 min⁻¹ and 0.024 min⁻¹
- half-life^1 [4]: 7.3 min and 8.5 min
- half-life^2 [4]: 24 min and 29 min

Structure (SMILES): CC(=O)N[C@@H](CCC(N)=O)C(=O)N[C@@H](CO)C(=O)N[C@@H](CCC(N)=O)C(=O)N[C@@H](CCC(N)=O)C(=O)N[C@H](C(=O)N[C@@H](Cc1ccccc1)C(=O)N[C@@H]1CCCCCCC=CCCC[C@@H](C(=O)N[C@@H](CCC(N)=O)C(=O)N[C@@H](CC(N)=O)C(N)=O)NC(=O)[C@H](CC(C)C)NC(=O)[C@H](CC(C)C)NC(=O)[C@H](CCCNC(=N)N)NC(=O)[C@H](Cc2c[nH]c3ccccc23)NC(=O)[C@H](CC(C)C)NC(=O)[C@H](CC(N)=O)NC1=O)[C@@H](C)O [SP-42, Ac-QSQQTF#r8NLWRLL#QN-NH2]
- Cmax [5]: 41200 ng/mL
- MRT [5]: 66 min

Structure (SMILES): CCCC[C@H](NC(=O)[C@@H]1CCCC=CCCC[C@H](NC(=O)[C@H](C)NC(=O)[C@H](CC(C)C)NC(=O)[C@H](Cc2c[nH]cn2)NC(=O)[C@H](CCCNC(=N)N)NC(=O)[C@H](C)NC(=O)[C@@H](NC(=O)[C@H](CC(N)=O)NC(=O)[C@H](CCCNC(=N)N)NC(=O)[C@@H](NC(=O)[C@@H](NC(=O)[C@H](CC(=O)O)NC(C)=O)[C@@H](C)CC)[C@@H](C)CC)[C@@H](C)CC)C(=O)N[C@@H](C(C)C)C(=O)NCC(=O)N[C@@H](CC(=O)O)C(=O)N1)C(=O)N[C@@H](CC(=O)O)C(=O)N[C@@H](CCCNC(=N)N)C(=O)N[C@@H](CO)C(=O)N[C@H](C(N)=O)[C@@H](C)CC [SP-35, Ac-DIIRNIARHLA#VGD#NleDRSI-NH2] (Ac-DIIRNIARHLA[Nle(6-ylidene)]VGD[Nle(6-ylidene)][Nle]DRSI-NH2; staple 12-16)
- Kd (GST-Bcl-XL): > 10000 nM
- AUC,inf [6]: 15400 ng·h/mL
- Cl [6]: 3.25 mL/min/kg
- Vss [6]: 0.132 L/kg
- Vz [6]: 2.025 L/kg
- Cmax ([6]; rat, in vivo, iv): 32200 ng/mL
- MRT ([6]; rat, in vivo, iv): 40.8 min
- half-life ([6]; rat, in vivo, iv): 126 min
- Kd (GST-Bcl-2 [7]): > 10000 nM
- K1 min^-1 [8]: 0.15 min⁻¹
- K2 min^-1 [8]: 0.0430 min⁻¹
- half-life^1 [8]: 4.6 min
- half-life^2 [8]: 16 min
